# Measurements reported in patent US7015202B2, “Use of glycyrrhizin and its derivatives as MCP-1 production inhibitors” (Minophagen Pharmaceutical Co., Ltd., priority 2002, dated 2006).
# Key:
# MCP-1 [1] = assay: MCP-1 production by IL-10-stimulated peripheral blood mononuclear cells (ELISA); type: cell-based, human; conditions: PBMC from healthy individuals, 20 ng/ml IL-10, compound 100 μg/ml, 24 hours, FIG. 1
# Procedure: Peripheral blood was collected from health individuals and the fraction containing peripheral blood mononuclear cells (PBMC) was isolated with Ficoll-Hypaque. Monocytes were inoculated into each well of a 96-well flat-bottom microtiter plate at a concentration of 1×10^6 cells/ml. RPMI1640 medium containing 10% FCS and antibiotics (penicillin and streptomycin) was used for culturing. The cells were cultured using an incubator maintained at a temperature of 37° C. and CO2 concentration of 5%. The cells were stimulated by addition of 20 ng/ml of IL-10 (acquired from PeproTech) to each well, and a solution of glycyrrhizin or its derivatives was added at a concentration of 100 μg/ml to all wells except the control well, after which culturing was continued for 24 hours. Following addition of glycyrrhizin, the culture supernatant was recovered and the amount of MCP-1 in the supernatant was quantified by ELISA. A commercially available kit (trade name: Human MCP-1 BD OptEIA ELISA Kit) was used for ELISA.
# HSV-1 = assay: Sensitivity to HSV-1 infection in burn mice; type: in vivo
# Procedure: Experimental Method One day after subjecting normal mice and MCP-1 knockout mice to third degree burns over 15% of their body surface area, the animals were intraperitoneally infected with HSV-1 in an amount of 1×10^1 to 1×10^6 pfu/kg body weight. For the control, normal mice were infected with HSV-1 under the same conditions. In addition, MCP-1 (50 ng/mouse) was administered subcutaneously to normal mice 2 hours before infection and 12 and 24 hours after infection. Anti-MCP-1 monoclonal antibody (10 μg/mouse) was administered subcutaneously to the burn mice 2 hours before infection and 12 and 24 hours after infection.
# MCP-1 [2] = assay: MCP-1 production by peripheral blood mononuclear cells from AIDS patients (ELISA); type: cell-based, human; conditions: 0.1 to 100 μg/ml, 24 hours, FIG. 3
# Procedure: Peripheral blood was collected from AIDS patients and the fraction containing peripheral blood mononuclear cells was isolated using Ficoll-Hypaque. Mononuclear cells were inoculated into each well of a 96-well flat-bottom microtiter plate at a concentration of 1×10^6 cells/ml. The medium was the same as that used in Example 1. The cells were cultured using an incubator maintained at a temperature of 37° C. and CO2 concentration of 5%.
# Glycyrrhizin solution was added to each well except the control well at a final concentration of 0.1 to 100 μg/ml followed by culturing for 24 hours.
# Following addition of glycyrrhizin, the culture supernatant was recovered and the amount of MCP-1 in the supernatant was quantified by ELISA. A commercially available kit (trade name: Human MCP-1 BD OptEIA ELISA Kit) was used for ELISA.
# MCP-1 [3] = assay: MCP-1 production by peripheral blood mononuclear cells from burn patients (ELISA); type: cell-based, human; conditions: 100 μg/ml, 24 hours, FIG. 2
# Procedure: Experimental Method Peripheral blood was collected from burn patients (third-degree burns covering 45–78% of the body surface), and peripheral blood mononuclear cells were isolated with Ficoll-Hypaque. 1×10^6 cells/ml of the peripheral blood mononuclear cells were stimulated for 24 hours with 100 μg/ml of glycyrrhizin. Furthermore, mononuclear cells from healthy subjects were cultured under the same conditions for the control. The amount of MCP-1 in the culture supernatant was measured with the Human MCP-1 BD OptEIA ELISA Kit.
# HIV [4] = conditions: reported in recent years; cited from earlier work
# HIV [5] = conditions: 150 to 225 mg (6 to 9 tablets) per day, asymptomatic carriers (AC); cited from earlier work
Compound,production of MCP-1 induced by IL-10 (MCP-1 [1]),"infection sensitivity to HSV-1 infection (HSV-1; burn mice (third degree burns, 15% of body surface), HSV-1 intraperitoneal, FIG. 4)",production of MCP-1 by mononuclear cells from AIDS patients (MCP-1 [2]),production of MCP-1 by mononuclear cells from burn patients (MCP-1 [3]),intracellular growth of HIV (HIV [4]),survival without the onset of AIDS (HIV [5]),infection sensitivity to HSV-1 infection (HSV-1; normal mice dosed MCP-1 50 ng/mouse subcutaneously 2 hours before and 12 and 24 hours after infection)
"CC1(C)[C@@H](O[C@H]2O[C@H](C(=O)O)[C@@H](O)[C@H](O)[C@H]2O[C@@H]2O[C@H](C(=O)O)[C@@H](O)[C@H](O)[C@H]2O)CC[C@]2(C)[C@H]3C(=O)C=C4[C@@H]5C[C@@](C)(C(=O)O)CC[C@]5(C)CC[C@@]4(C)[C@]3(C)CC[C@@H]12.N [glycyrrhizin, monoammonium glycyrrhizinate]",inhibiting the production of MCP-1 induced by IL-10,recover to the same level as normal mice,production of MCP-1 was found to be inhibited,effectively inhibited the production of MCP-1,inhibits the intracellular growth of HIV,≥ 10 years,–
"MCP-1: monocyte chemoattractant protein-1, a CC chemokine composed of 76 amino acids",–,–,–,–,–,–,100 times higher as compared with
